# Assay results from patent US8293212B2, “Inhibitor screening method and atopic dermatitis like symptom inducing method which utilizes induction of production of interleukin 18 by keratinocyte and utilization of same” (Japan Science & Technology Agency, priority 2003, dated 2012).
# Where a SMILES comes first, the peptide text is derived from it. The star is where a group is joined. Cbz = O=C(OCc1ccccc1)*; CH2F = FC*
# Assays:
# Kupffer cells [1] = details: secretion caused by LPS or membrane-bound Fas ligand stimulation; stated as background; cited from earlier work
# [2] = tested on: KC of wild-type mice stimulated with SpA; assay: Effect of caspase inhibitors on IL-18 secretion from SpA-stimulated KC; assay type: cell-based, mouse; details: 20 μM inhibitor, 500 μg/ml SpA, 24 hours (FIG. 7C)
# Protocol: (§1) KC (5×10^5/ml) or PAM212 cells (2×10^5/ml) were incubated with a variety of doses of SpA and 1 μg/ml LPS or mFasL (1×10^6/ml) for 24 hours. In some examples, KC of wild-type mice were incubated with 100 μg/ml SpA in the presence of 20 μM of ZVAD or YVAD for 24 hours. IL-18 concentration and its activity in each supernatant were determined by ELISA and bioassay respectively. In some examples, KC were incubated with 500 μg/ml SpA for 4 hours, and total RNA was extracted, followed by RT-PCR (see Tsutsui, H., Matsui, K., Kawada, N., Hyodo, Y., Hayashi, N., Okamura, H., Higashino, K. and Nakanishi, K. 1997. IL-18 accounts for both TNF-α and Fas ligand-mediated hepatotoxic pathways in endotoxin-induced liver injury in mice. J. Immunol. 159:3961). As to primers for IL-18, IL-12p35, IL-12p40, or β-actin, and PCR conditions for individual cytokines, see the Tsutsui et al.
# To be specific, KC were prepared from wild-type mice, caspase-1-deficient mice, TLR2-deficient mice, or MyD88-deficient mice. The KC of the wild-type mice were incubated with 500 μg/ml SpA in the presence of 20μ MZVAD, 20 μM YVAD, or the same volume of DMSO(Veh) for 24 hours. On the other hand, KC from each of the mutants were incubated with 500 μg/ml SpA for 24 hours. IL-18 in each supernatant was measured by ELISA. The result is illustrated in FIG. 7C. […]
# Kupffer cells [3] = assay: Cytokine expression and secretion of Kupffer cells after stimulation; assay type: cell-based, mouse; details: in response to SpA, data not shown
# Protocol: Kupffer cells were prepared according to Non-Patent Document 6. Kupffer cells (1×10^6/ml) were incubated with 1 μg/ml LPS (lypopolysaccharide) for 4 hours, and their IL-18, IL-12p35, IL-12p40 and β-actin expressions were determined as mRNA levels by RT-PCR.
# Next, it was examined whether SpA-stimulated KC secretes IL-12 as well as IL-18. In order to detect a small amount of IL-12, total RNA were obtained from KC that had been incubated with SpA for 4 hours, and RT-PCR was performed using the RNA. To be specific, KC and Kupffer cells of wild-type B6 mice were separately incubated in the presence/absence of 500 μg/ml SpA, and in the presence/absence of 1 μg/ml LPS for 4 hours. Expression level of mRNA of IL-18, IL-12p40, IL-12p35, and β-actin out of all extracted RNA were measured by RT-PCR. The result of the measurement is illustrated in FIG. 7D.
# KC of wild-type B6 mice = assay: IL-12 expression (RT-PCR) and IL-12 secretion (ELISA) in SpA-stimulated KC; assay type: cell-based, mouse
# Protocol: as §1
# Next, it was examined whether SpA-stimulated KC secretes IL-12 as well as IL-18. In order to detect a small amount of IL-12, total RNA were obtained from KC that had been incubated with SpA for 4 hours, and RT-PCR was performed using the RNA. […] Expression level of mRNA of IL-18, IL-12p40, IL-12p35, and β-actin out of all extracted RNA were measured by RT-PCR. […]
# normal B6 mice = assay: Application of SpA on ear skin of normal B6 mice, serum IL-18/IgE and Th1/Th2 differentiation; assay type: in vivo, mouse
# Protocol: Splenic CD4^+ T cells were isolated from variously treated mice using an AutoMACS™ separator (manufactured by Miltenyi Biotec). The newly isolated spleen cells were incubated with anti-CD4 beads (manufactured by Miltenyi Biotec). The purity of the CD4^+ T cells was more than 98%. The cells (1×10^6/ml) were incubated with immobilized anti-CD3ε (manufactured by PharMingen) for 48 hours. Concentrations of IFN-γ and IL-4 in each supernatant were determined by ELISA.
# (§2) Concentration of IL-18 was determined by an ELISA kit manufactured by MBL. IL-4, IFN-γ, and IL-1β were determined by an ELISA kit manufactured by Genzyme. An ELISA kit for IL-5 was purchased from Endogen. IgE serum level was determined by an ELISA kit manufactured by pharMingen. IFN-γ induction ability of IL-18 was determined by bioassay using clones of IL-18-responsive mouse NK cells (see Non-Patent Document 6 and others)
# Solutions made by dissolving various doses of SpA in 5 μl vehicle (50% glycerol in PBS) were prepared, and the SpA solutions were applied on ear skin of wild-type mice for 14 days. For the control study, 5 μl vehicle without SpA was used. One mouse was caged to avoid effects from other mice.
# To be specific, various amounts of SpA or only vehicles were applied on ear skin of normal B6 mice once a day for two weeks. After that, on day 14, serum and spleens were sampled so as to measure concentration of IL-18 or IgE. Further, splenic CD4^+ T cells from mice on which vehicle or SpA(100 μg/day) was applied were incubated with plate-bound anti-CD3 for 48 hours, and concentrations of IFN-γ and IL-4 in each supernatant were measured by ELISA. The results of the measurements are illustrated in FIGS. 6A through 6C.
# PAM212 cells = assay: IL-18 secretion and IFN-γ-inducing bioactivity of IL-18 from PAM212 cells incubated with SpA; assay type: cell-based, mouse; details: PAM212 cells incubated with SpA 24 hours (FIG. 7A)
# Protocol: as §2
# To be specific, LNK5E6 cells, having higher responsiveness to stimulation with IL-18 in terms of IFN-γ production than LNK5E3 cells (see Non-Patent Document 6), were incubated with a variety of samples and 100 pg/ml IL-12, in the presence or absence of anti-IL-18 antibody (50 μg/ml), for 48 hours. […]
# KC (5×10^5/ml) or PAM212 cells (2×10^5/ml) were incubated with a variety of doses of SpA and 1 μg/ml LPS or mFasL (1×10^6/ml) for 24 hours. […] IL-18 concentration and its activity in each supernatant were determined by ELISA and bioassay respectively. […]
# To be specific, PAM212 cells (culture strain of KC of mice) were incubated with or without SpA for 24 hours, and the IL-18 concentration and IFN-γ-inducing bioactivity of IL-18 in each supernatant were determined by ELISA and bioassay respectively. […] ND stands for “not detected”.
# NC/Nga mice = assay: Induction of AD-like skin lesion by application on shaven backs of NC/Nga mice; assay type: in vivo, mouse; details: 4% of SDS, SpA 200 μg/day, alone or as mixture
# [4] = tested on: KC from wild-type B6 mice; assay: IL-18 secretion from newly isolated KC after stimulation, ELISA of supernatant; assay type: cell-based, mouse
# Protocol: as §2
# In order to delete DC, KC were incubated with CD11c microbeads (manufactured by Miltenyi Biotec), and then CD 11c^+ cells were depleted using an AutoMACS™ separator.
# as §1, with “al. […]” for “al.”
# To be specific, KC or CD11c^+ cell-depleted KC prepared from skin of wild-type B6 mice were analyzed for their expression of CD11c and MHC class II (1-A^b) by flow cytometry. These cells were incubated with or without SpA for 24 hours, and concentration of IL-18 in the resulting supernatant was measured by ELISA. […]
# Further, because Kupffer cells secrete IL-18 in response to stimulation with LPS or membrane-bound Fas ligand, it was examined whether these stimuli induce IL-18 secretion from KC. […] IL-18 contained in each resulting supernatant was measured by ELISA.
Compound,inhibition of IL-18 secretion from Kupffer cells (Kupffer cells [1]),inhibition of secretion of IL-18 from SpA-stimulated KC [2],secretion of IL-12 or IL-18 from Kupffer cells (Kupffer cells [3]),"IL-12p35 and IL-12p40 mRNA expression (RT-PCR) (KC of wild-type B6 mice; 500 μg/ml SpA, 4 hours (FIG. 7D))","IL-12p40 or IL-12p70 in supernatant (ELISA) (KC of wild-type B6 mice; 24-hour incubation, data not shown)","Th1/Th2 differentiation of splenic CD4+ T cells (IFN-γ and IL-4) (normal B6 mice; SpA 100 μg/day, anti-CD3 48 hours (FIG. 6C))",IL-12p40 and IL-12p70 in sera (ELISA) (normal B6 mice; data not shown),"serum levels of IL-18 (normal B6 mice; ear skin, once a day for two weeks, day 14 (FIG. 6A))","serum IgE levels (normal B6 mice; ear skin, once a day for two weeks, day 14 (FIG. 6B))",secretion of activated IL-18 (ELISA and IFN-γ-inducing bioassay) (PAM212 cells),development of AD / skin lesion like AD (NC/Nga mice),"IL-18 produced by KC ([4]; 500 μg/ml SpA without adding DMSO, 24 hours (FIG. 7C))","IL-18 in supernatant ([4]; KC 5×10^5/ml, 24 hours, 500 μg/ml SpA, 1 μg/ml LPS or 1×10^6/ml mFasL, ND = not detected)","IL-18 release from newly isolated KC in response to SpA ([4]; various amounts of SpA, 24 hours (FIG. 7B))"
"CC(=O)N[C@@H](Cc1ccc(O)cc1)C(=O)N[C@H](C(=O)N[C@@H](C)C(=O)N[C@@H](CC(=O)O)C(=O)CCl)C(C)C [YVAD, Ac-YCAD-CMK]",strongly inhibit,did not inhibit,–,–,–,–,–,–,–,–,–,–,–,–
"COC(=O)C[C@H](NC(=O)[C@H](C)NC(=O)[C@@H](NC(=O)OCc1ccccc1)C(C)C)C(=O)CF [ZVAD, Z-VAD-FMK] (Cbz-Val-Ala-Asp(OMe)-CH2F)",strongly inhibit,did not inhibit,–,–,–,–,–,–,–,–,–,–,–,–
"SpA: protein A purified from Staphylococcus aureus Cowan 1, purchased from Calbiochem",–,–,did not secrete IL-12 or IL-18,neither IL-12p35 nor IL-12p40 were detected,not detected,did not show preferential differentiation of Th2 cells,not detected,increased,increased in a dose-dependent manner,secreted activated IL-18,do not develop AD,28.4 ± 3.5 pg/mL,31.5 ± 3.2 pg/mL,released IL-18 in a dose-dependent manner
